Test results reported in article PMC1345695 (Nucleic Acids Research, 2006).

Target: wt tetrameric Lac repressor (tet. LacR) (Escherichia coli, UniProt P03023)
Assay: band shift of operator DNA, IPTG titration, non-linear regression
Format: binding

wt tetrameric Lac repressor (tet. LacR), sequence (P03023 whole entry): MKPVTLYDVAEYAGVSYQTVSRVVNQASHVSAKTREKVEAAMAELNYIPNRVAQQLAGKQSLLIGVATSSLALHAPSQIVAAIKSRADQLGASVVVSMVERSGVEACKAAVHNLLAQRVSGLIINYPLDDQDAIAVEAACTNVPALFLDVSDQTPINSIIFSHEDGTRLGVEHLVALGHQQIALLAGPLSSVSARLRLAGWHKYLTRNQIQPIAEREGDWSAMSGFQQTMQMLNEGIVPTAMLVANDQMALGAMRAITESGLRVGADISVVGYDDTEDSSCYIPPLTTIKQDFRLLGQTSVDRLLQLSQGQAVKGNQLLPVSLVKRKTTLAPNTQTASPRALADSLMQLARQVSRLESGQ

Molecule `CC(C)S[C@@H]1O[C@H](CO)[C@H](O)[C@H](O)[C@H]1O` [IPTG] has a Kd of 8.2 µM.
